This is an account of results in ChEMBL document CHEMBL1131552, “Identification of side chains on 1,2,5-thiadiazole-azacycles optimal for muscarinic m1 receptor activation” (Bioorg Med Chem Lett, 1998).

The target in experiment [1] is Muscarinic acetylcholine receptor.
The target of experiment [2] is T1, Muscarinic acetylcholine receptor M2 (Homo sapiens, UniProt P08172).
T1 sequence (P08172 whole entry): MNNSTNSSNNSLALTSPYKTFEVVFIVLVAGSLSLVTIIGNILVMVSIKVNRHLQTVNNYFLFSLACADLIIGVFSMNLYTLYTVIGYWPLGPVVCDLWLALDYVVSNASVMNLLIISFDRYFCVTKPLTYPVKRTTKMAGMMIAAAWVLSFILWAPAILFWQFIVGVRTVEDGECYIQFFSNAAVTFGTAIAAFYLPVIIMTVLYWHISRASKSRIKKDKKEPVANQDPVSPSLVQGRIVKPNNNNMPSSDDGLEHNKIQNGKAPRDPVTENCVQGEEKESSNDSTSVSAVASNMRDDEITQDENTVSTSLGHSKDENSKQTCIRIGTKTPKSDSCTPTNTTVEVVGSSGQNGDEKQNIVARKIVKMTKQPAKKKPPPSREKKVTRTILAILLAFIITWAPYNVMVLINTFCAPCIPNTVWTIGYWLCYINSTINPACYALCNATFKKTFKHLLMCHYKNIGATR
Description: Stimulation of cAMP in CHO cells expressing human m2 receptor

Experiment [3] concerns the target T2, Muscarinic acetylcholine receptor M1 (Homo sapiens, UniProt P11229).
T2 sequence (P11229 whole entry): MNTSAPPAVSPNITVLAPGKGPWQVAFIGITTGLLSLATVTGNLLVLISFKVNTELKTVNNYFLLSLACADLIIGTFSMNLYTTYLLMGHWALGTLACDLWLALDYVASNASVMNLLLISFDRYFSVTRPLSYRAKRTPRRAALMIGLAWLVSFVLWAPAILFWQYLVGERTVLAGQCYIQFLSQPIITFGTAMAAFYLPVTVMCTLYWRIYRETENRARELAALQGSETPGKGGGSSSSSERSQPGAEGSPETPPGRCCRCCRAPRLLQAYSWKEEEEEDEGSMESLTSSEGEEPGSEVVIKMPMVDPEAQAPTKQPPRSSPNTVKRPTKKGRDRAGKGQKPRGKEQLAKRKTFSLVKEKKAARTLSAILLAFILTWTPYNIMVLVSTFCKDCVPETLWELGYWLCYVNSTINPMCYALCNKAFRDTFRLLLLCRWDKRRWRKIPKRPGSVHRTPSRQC
Description: Stimulation of phosphoinositide hydrolysis in A9L cells expressing human m1 receptor

Experiment [4] concerns the target T2, Muscarinic acetylcholine receptor M1. The experiment is described as follows: Effective concentration required for stimulation of phosphoinositide hydrolysis in A9L cells expressing human m1 receptor. It counts as functional, cell-based.
For experiment [5], the target named is Muscarinic acetylcholine receptor. The experiment is described as follows: Binding affinity against muscarinic receptor in rat brain membranes using oxotremorine-M as ligand. It is filed as cell membranes.
A short description of experiment [6]: Potency ratio of EC50 of the CHO cell lines to that of A9L cell lines was calculated. It is filed as functional.
Experiment [7] addresses T3, Muscarinic acetylcholine receptor M1 (Homo sapiens) (UniProt P11229).
T3 sequence (whole entry): T2 sequence (P11229 whole entry)
The experiment is described as follows: Stimulation of phosphoinositide hydrolysis in BHK cells. It counts as functional, cell-based.

As for `CCCCCCOc1nsnc1[C@H]1CN2CC[C@H]1C2`, in experiment [1], the IC50 came out at 0.73 nM.
Regarding `CCCCCCCCOc1nsnc1C1=CCCN(C)C1`, the IC50 in experiment [1] is reported as 30 nM.
In experiment [1], `CCCCCCOc1nsnc1[C@@H]1CN2CCC[C@H]1C2` returned an IC50 of 63 nM.
Consider `CCCCCCOc1nsnc1[C@@H]1CN2CC[C@H]1C2` (stereo in doubt; 13), for which the IC50 in experiment [1] was 16 nM.
Take `C(#Cc1ccccc1)COc1nsnc1C1CN2CCC1CC2` (stereo not given): the values for the EC50 in experiment [2] and in experiment [3] were 62 nM and 15.7 nM, respectively. In experiment [1], this compound came in with an IC50 of 4.7 nM.
On to `C(#Cc1ccccc1)CSc1nsnc1[C@H]1CN2CCC[C@H]1C2`, for which the EC50 came to 0.2 nM in experiment [4] and 2 nM in experiment [2]. In experiment [1], this compound displayed an IC50 of 1.7 nM.
`CCOc1nsnc1C1=CCCN(C)C1` displayed an IC50 in experiment [1] of 5.7 nM.
With `C(#Cc1ccccc1)COc1nsnc1[C@@H]1CN2CC[C@H]1C2`, the results for the EC50 in experiment [2] and in experiment [3] were 1100 nM and 67.3 nM, respectively. The compound also displayed a concentration for half-maximal inhibition (IC50) in experiment [1] of 20 nM.
As to `CN1CCC=C(c2nsnc2OCCc2ccccc2)C1`, in experiment [1], the IC50 was 15 nM. In other words, the double-digit nanomolar range.
Compound `CN1CCC=C(c2nsnc2OCCCc2ccccc2)C1` yielded an IC50 in experiment [1] of 13 nM.
For the compound `CCCCCOc1nsnc1C1=CCCN(C)C1`, the IC50 in experiment [1] is reported as 2 nM.
As for `c1ccc(CCCSc2nsnc2[C@@H]2CN3CCC[C@H]2C3)cc1`, the IC50 in experiment [1] is listed as 35 nM.
For `C(#Cc1ccccc1)COc1nsnc1[C@H]1CN2CC[C@@H]1C2`, the figures for the EC50 in experiment [2] and in experiment [3] were 1080 nM and 159 nM, respectively. The IC50 in experiment [1] is 41 nM.
As to `CN1CCC=C(c2nsnc2SCCc2ccccc2)C1`, in experiment [1], the IC50 worked out at 23 nM.
Take `C(#Cc1ccccc1)COc1nsnc1[C@@H]1CN2CCC[C@H]1C2`: the EC50 in experiment [2] came out at 227 nM; in experiment [3], 28.3 nM. This compound also displayed an IC50 in experiment [1] of 66 nM.
On to `C(#Cc1ccccc1)CSc1nsnc1[C@@H]1CN2CCC[C@H]1C2`, for which the EC50 was over 10000 nM in experiment [2] and 1 nM in experiment [3]. The same compound returned a 50% inhibitory concentration (IC50) in experiment [1] of 363 nM.
The compound `C(#Cc1ccccc1)COc1nsnc1[C@H]1CN2CCC[C@@H]1C2` gave a 50% effective concentration (EC50) in experiment [2] of 2250 nM. This compound returned an IC50 in experiment [1] of 78 nM.
Consider `C(#Cc1ccccc1)COc1nsnc1[C@H]1CN2CCC1C2` (stereo not given in full), for which the EC50 in experiment [2] amounted to 11 nM; in experiment [3], 0.99 nM. Further, the IC50 in experiment [1] is recorded as 0.8 nM.
In experiment [1], `CCCOc1nsnc1C1=CCCN(C)C1` came in with an IC50 of 1.6 nM.
In experiment [1], `c1ccc(CCCSc2nsnc2[C@H]2CN3CCC[C@H]2C3)cc1` gave an IC50 of 1.3 nM.
In turn, `CCCCCCOc1nsnc1[C@H]1CN2CCC[C@H]1C2` displayed an IC50 in experiment [1] of 1.2 nM.
In experiment [1], `CN1CCC=C(c2nsnc2OCCCCc2ccccc2)C1` showed an IC50 of 20 nM.
As for `C(#Cc1ccccc1)COc1nsnc1[C@@H]1CN2CCC[C@@H]1C2`, the IC50 in experiment [5] came to 3.4 nM. For the same compound, it took 29 nM to reach a half-maximal effect in experiment [2] (EC50).
Consider `C(#Cc1ccccc1)COc1nsnc1C12CN3CC1C2C3`, for which the EC50 stood at 779 nM in experiment [2] and 70.5 nM in experiment [3]. Further, the IC50 in experiment [1] came out at 14 nM.
As to `C(#Cc1ccccc1)COc1nsnc1[C@H]1CN2CCC[C@H]1C2`, the EC50 in experiment [2] was found to be 9 nM; in experiment [3], 0.5 nM. For the same compound, the IC50 in experiment [1] is 1.2 nM.
Turning to `CN1CCC=C(c2nsnc2SCCCc2ccccc2)C1`, the IC50 in experiment [1] is given as 1.3 nM.
Take `c1ccc(CCCSc2nsnc2[C@H]2CN3CC[C@H]2C3)cc1`: the IC50 in experiment [1] stood at 1.7 nM.
Same read-out and setting: as for `CCCCCCCOc1nsnc1C1=CCCN(C)C1`, the figure is 6.2 nM; as for `CN1CCC=C(c2nsnc2SCc2ccccc2)C1`, 5.9 nM.
In experiment [1], `CN1CCC=C(c2nsnc2OCc2ccccc2)C1` displayed an IC50 of 8 nM.
In the case of `CN1CCC=C(c2nsnc2OCC#Cc2ccccc2)C1`, the Potency ratio in experiment [6] was 2. Also, the EC50 in experiment [2] worked out at 240 nM; in experiment [3], 110 nM. In addition, in experiment [1], the IC50 was 8.5 nM.
In turn, `CCCCCCOc1nsnc1C1CN2CCC1CC2` (stereo not given) yielded an IC50 in experiment [1] of 4.3 nM.
With `COc1nsnc1C1=CCCN(C)C1`, in experiment [1], the IC50 was found to be 22 nM. Compared with the last compound, the IC50 is about 5.1-fold higher.
Still for that read-out and setting: as for `c1ccc(CCCSc2nsnc2C2CN3CCC2CC3)cc1` (stereo not given), the figure is 14 nM.
In the case of `COc1cccc(C#CCO/N=C2\CN3CCC2C3)c1` (stereo not given), the Max PI in experiment [7] came to 14%. Further, the figures for the EC50 in experiment [2] and in experiment [3] were 28000 nM and over 1000 nM, respectively. The compound also came in with an IC50 in experiment [1] of 167 nM.
Turning to `C(#Cc1ccccc1)CSc1nsnc1[C@@H]1CN2CC[C@H]1C2`, the results for the EC50 in experiment [2] and in experiment [3] were 139 nM and over 100 nM, respectively. The compound further yielded an IC50 in experiment [1] of 42 nM.
Turning to `CCCCCCOc1nsnc1[C@@H]1CN2CC[C@H]1C2` (stereo in doubt; 26), in experiment [1], the IC50 is on record as 6 nM. This counts as single-digit nanomolar.

What is called IC50 is the point on the concentration scale where inhibition reaches its midpoint. A word on the EC50: it is the concentration giving half of the maximal effect.
